Data reported in the NIST ThermoML archive (doi:10.1016/j.jct.2006.12.005).
± gives the expanded uncertainty stated by the source.

Assays:
[1] = for speed of sound / mass density / viscosity: 101.33 kPa, Liquid; for speed of sound: VIBRATING TUBE DENSIMETER; for mass density: Vibrating tube method; for surface tension liquid-gas: Ring tensiometer; for viscosity: Capillary tube (Ostwald / Ubbelohde) method
[2] = refractive index (Na D-line) (dimensionless); conditions: 101.33 kPa, Liquid, Standard Abbe refractometry

CCCCn1cc[n+](C)c1.F[P-](F)(F)(F)(F)F [1-butyl-3-methylimidazolium hexafluorophosphate]
Conditions	mass density, [1] [kg/m3]	refractive index, [2]	speed of sound, [1] [m/s]	surface tension liquid-gas, [1] [mN/m]	viscosity, [1] [mPa·s]
278.15 K	1384.36 ± 10	–	1492.5 ± 5	–	–
283.15 K	1380.1 ± 10	1.41332 ± 0.0011	1480.8 ± 5	–	–
288.15 K	1375.83 ± 10	1.41198 ± 0.0011	1468.2 ± 5	43.7 ± 1.2	–
293.15 K	1371.56 ± 10	1.41069 ± 0.0011	1455.3 ± 5	43.2 ± 1.2	340.49 ± 14
298.15 K	1367.3 ± 10	1.40937 ± 0.0011	1442.8 ± 5	42.9 ± 1.2	247.06 ± 9.1
303.15 K	1363.03 ± 10	1.40808 ± 0.0011	1430.6 ± 5	42.6 ± 1.2	184.23 ± 6.2
308.15 K	1358.76 ± 10	1.40674 ± 0.0011	1419 ± 5	42.2 ± 1.2	140.57 ± 4.3
313.15 K	1354.53 ± 10	1.40543 ± 0.0011	1406.4 ± 5	41.8 ± 1.2	108.9 ± 3.1
318.15 K	1350.32 ± 9.9	1.40411 ± 0.0011	1394.9 ± 5	–	85.9 ± 2.3
323.15 K	1346.12 ± 9.9	1.40282 ± 0.0011	1383.5 ± 5	–	68.79 ± 1.8
328.15 K	1341.97 ± 9.8	1.40151 ± 0.0011	1372.2 ± 5	–	–
333.15 K	1337.83 ± 9.8	1.40024 ± 0.0011	1360.9 ± 5	–	–
338.15 K	1333.7 ± 9.7	1.39896 ± 0.0011	1349.2 ± 5	–	–
343.15 K	1329.61 ± 9.7	1.39771 ± 0.0011	1337.2 ± 5	–	–

CCCCCCn1cc[n+](C)c1.F[P-](F)(F)(F)(F)F [1-hexyl-3-methylimidazolium hexafluorophosphate]
[1]
Conditions	speed of sound [m/s]	surface tension liquid-gas [mN/m]	viscosity [mPa·s]
278.15 K	1490.7 ± 5	–	–
283.15 K	1470.8 ± 5	–	–
288.15 K	1453.6 ± 5	–	–
293.15 K	1438.3 ± 5	37.5 ± 1.1	676.82 ± 34
298.15 K	1424.2 ± 5	37.1 ± 1.1	475.66 ± 22
303.15 K	1411 ± 5	36.8 ± 1.1	342.52 ± 14
308.15 K	1398.5 ± 5	36.5 ± 1	252.69 ± 9.4
313.15 K	1386.4 ± 5	36.1 ± 1	187.36 ± 6.3
318.15 K	1374.6 ± 5	–	143.58 ± 4.4
323.15 K	1363 ± 5	–	111.9 ± 3.2
328.15 K	1351.7 ± 5	–	–
333.15 K	1340.3 ± 5	–	–
338.15 K	1329.3 ± 5	–	–
343.15 K	1318.4 ± 5	–	–

CCCCCCCC[n+]1ccn(C)c1.F[P-](F)(F)(F)(F)F [1-octyl-3-methylimidazolium hexafluorophosphate]
Conditions	mass density, [1] [kg/m3]	refractive index, [2]	speed of sound, [1] [m/s]	surface tension liquid-gas, [1] [mN/m]	viscosity, [1] [mPa·s]
278.15 K	1251.83 ± 8.5	–	1481.6 ± 5	–	–
283.15 K	1247.65 ± 8.5	1.42716 ± 0.0011	1460 ± 5	–	–
288.15 K	1243.43 ± 8.4	1.42578 ± 0.0011	1440.8 ± 5	–	–
293.15 K	1239.57 ± 8.4	1.4244 ± 0.0011	1423.7 ± 5	36.5 ± 1	999.08 ± 56
298.15 K	1235.72 ± 8.3	1.42302 ± 0.0011	1407.8 ± 5	36.2 ± 1	690.6 ± 35
303.15 K	1231.88 ± 8.3	1.42165 ± 0.0011	1393 ± 5	35.9 ± 1	489.02 ± 22
308.15 K	1228.04 ± 8.2	1.42028 ± 0.0011	1378.9 ± 5	35.6 ± 1	355.31 ± 15
313.15 K	1224.21 ± 8.2	1.41887 ± 0.0011	1365.8 ± 5	35.2 ± 1	263.23 ± 9.9
318.15 K	1220.37 ± 8.1	1.41749 ± 0.0011	1353.2 ± 5	–	196.23 ± 6.7
323.15 K	1216.62 ± 8.1	1.4161 ± 0.0011	1341 ± 5	–	150.57 ± 4.7
328.15 K	1212.92 ± 8	1.41471 ± 0.0011	1329.1 ± 5	–	–
333.15 K	1209.21 ± 8	1.41334 ± 0.0011	1317.5 ± 5	–	–
338.15 K	1205.51 ± 7.9	1.41195 ± 0.0011	1305.8 ± 5	–	–
343.15 K	1201.82 ± 7.9	1.41056 ± 0.0011	1294.6 ± 5	–	–
